# Data as given in patent US20210070748A1, “INHIBITORS OF BRUTONS TYROSINE KINASE” (Pharmacyclics LLC, priority 2015, published 2021).
# Key:
# Format in all cases: biochemical
# JAK3 = biological target: T1, JAK3 (Homo sapiens, UniProt P52333); assay: Inhibition of a panel of kinases, in vitro HotSpot kinase assay: JAK3; conditions: D-compounds panel data; 1 μM ATP; read-out: IC50 JAK3
# T1 sequence (P52333 1-1124): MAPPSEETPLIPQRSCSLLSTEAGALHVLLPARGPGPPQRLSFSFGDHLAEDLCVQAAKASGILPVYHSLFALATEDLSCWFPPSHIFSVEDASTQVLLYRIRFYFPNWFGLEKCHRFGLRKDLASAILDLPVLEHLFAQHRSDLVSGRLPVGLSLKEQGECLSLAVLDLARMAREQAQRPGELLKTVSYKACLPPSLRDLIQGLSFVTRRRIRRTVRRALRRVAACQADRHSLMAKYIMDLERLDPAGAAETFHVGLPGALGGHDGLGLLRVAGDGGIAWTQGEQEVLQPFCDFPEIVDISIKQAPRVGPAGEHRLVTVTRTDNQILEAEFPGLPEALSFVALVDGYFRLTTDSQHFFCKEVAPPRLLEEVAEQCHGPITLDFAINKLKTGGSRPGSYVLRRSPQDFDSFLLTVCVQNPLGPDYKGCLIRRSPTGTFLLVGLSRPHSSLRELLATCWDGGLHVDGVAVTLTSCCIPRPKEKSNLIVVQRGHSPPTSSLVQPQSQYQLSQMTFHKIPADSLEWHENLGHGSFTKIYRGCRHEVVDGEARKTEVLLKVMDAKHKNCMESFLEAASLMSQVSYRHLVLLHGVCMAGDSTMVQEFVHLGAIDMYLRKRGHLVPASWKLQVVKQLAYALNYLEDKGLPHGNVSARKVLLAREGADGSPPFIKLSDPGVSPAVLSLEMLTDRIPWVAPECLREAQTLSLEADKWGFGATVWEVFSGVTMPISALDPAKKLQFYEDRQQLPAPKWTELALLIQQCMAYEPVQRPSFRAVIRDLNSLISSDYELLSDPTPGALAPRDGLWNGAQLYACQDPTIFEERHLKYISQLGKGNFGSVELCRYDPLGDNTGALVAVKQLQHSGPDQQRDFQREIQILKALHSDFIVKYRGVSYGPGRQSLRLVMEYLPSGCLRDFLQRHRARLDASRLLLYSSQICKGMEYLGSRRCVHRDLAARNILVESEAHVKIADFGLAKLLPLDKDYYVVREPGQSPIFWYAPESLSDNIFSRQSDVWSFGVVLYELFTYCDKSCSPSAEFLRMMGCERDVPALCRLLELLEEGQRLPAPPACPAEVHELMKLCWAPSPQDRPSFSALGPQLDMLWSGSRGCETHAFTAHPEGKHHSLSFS
# LCK = LCK (Homo sapiens, UniProt P06239); assay: Inhibition of a panel of kinases, in vitro HotSpot kinase assay: LCK; conditions: D-compounds panel data; 1 μM ATP; read-out: IC50 LCK
# ITK = biological target: T2, ITK (Homo sapiens, UniProt Q08881); assay: Inhibition of a panel of kinases, in vitro HotSpot kinase assay: ITK; conditions: D-compounds panel data; 1 μM ATP
# T2 sequence (Q08881 1-620): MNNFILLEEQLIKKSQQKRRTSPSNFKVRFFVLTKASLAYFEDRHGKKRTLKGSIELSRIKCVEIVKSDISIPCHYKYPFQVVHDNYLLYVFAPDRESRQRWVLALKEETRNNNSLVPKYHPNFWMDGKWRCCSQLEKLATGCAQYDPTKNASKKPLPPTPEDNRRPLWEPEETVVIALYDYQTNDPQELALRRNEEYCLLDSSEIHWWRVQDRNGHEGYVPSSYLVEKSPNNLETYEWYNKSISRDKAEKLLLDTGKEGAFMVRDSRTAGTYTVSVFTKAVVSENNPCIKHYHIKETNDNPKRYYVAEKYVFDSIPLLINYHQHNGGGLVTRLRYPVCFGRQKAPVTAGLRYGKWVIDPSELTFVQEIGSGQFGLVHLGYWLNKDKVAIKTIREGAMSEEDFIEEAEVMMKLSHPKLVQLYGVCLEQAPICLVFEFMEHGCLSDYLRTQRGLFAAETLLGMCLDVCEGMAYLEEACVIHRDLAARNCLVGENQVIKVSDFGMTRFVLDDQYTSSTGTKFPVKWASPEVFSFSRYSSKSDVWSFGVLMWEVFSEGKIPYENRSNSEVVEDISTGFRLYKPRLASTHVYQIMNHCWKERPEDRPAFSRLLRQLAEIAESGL
# Procedure: (§1) The degree of inhibition of a panel of kinases is determined using the in vitro HotSpot kinase assay (purified enzymes, ^33P-ATP, an appropriate substrate and 1 μM ATP).
# EGFR = EGFR (Homo sapiens, UniProt P00533); assay: Inhibition of a panel of kinases, in vitro HotSpot kinase assay: EGFR; conditions: D-compounds panel data; 1 μM ATP
# Procedure: as §1
# SRC = SRC (Homo sapiens, UniProt P12931); assay: Inhibition of a panel of kinases, in vitro HotSpot kinase assay: SRC; conditions: D-compounds panel data; 1 μM ATP
# Procedure: as §1
# Chain of EGFR (P00533 25-1210): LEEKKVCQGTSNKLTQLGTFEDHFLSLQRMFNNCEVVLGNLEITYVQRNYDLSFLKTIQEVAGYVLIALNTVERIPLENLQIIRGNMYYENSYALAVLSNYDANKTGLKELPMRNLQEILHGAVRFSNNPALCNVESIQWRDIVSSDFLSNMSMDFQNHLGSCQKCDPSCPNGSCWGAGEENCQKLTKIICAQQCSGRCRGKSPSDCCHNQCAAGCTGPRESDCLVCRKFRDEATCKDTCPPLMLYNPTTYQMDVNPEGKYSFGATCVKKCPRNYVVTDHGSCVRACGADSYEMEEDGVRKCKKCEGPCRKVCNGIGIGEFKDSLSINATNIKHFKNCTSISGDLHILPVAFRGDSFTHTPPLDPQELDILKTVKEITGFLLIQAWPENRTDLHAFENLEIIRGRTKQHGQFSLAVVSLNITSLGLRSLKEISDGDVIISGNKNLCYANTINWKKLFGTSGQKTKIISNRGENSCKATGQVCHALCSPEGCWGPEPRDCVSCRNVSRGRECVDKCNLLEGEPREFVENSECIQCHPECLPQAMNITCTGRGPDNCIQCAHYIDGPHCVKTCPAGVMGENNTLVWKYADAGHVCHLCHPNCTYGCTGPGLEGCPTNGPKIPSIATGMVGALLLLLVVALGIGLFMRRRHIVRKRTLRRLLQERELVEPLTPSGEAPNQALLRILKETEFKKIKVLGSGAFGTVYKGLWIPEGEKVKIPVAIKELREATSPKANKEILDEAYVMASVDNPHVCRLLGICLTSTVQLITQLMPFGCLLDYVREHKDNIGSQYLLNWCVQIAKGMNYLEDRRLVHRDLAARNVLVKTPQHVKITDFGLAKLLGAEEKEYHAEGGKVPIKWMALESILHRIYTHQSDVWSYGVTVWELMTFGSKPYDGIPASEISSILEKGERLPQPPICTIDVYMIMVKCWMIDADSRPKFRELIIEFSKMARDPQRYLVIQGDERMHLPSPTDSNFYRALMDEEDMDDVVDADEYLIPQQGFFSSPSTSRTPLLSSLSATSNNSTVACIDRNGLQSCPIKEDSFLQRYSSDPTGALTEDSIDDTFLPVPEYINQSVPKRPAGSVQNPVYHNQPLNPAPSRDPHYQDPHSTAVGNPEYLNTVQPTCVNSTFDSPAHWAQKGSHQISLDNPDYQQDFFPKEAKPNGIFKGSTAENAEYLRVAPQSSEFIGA
# Chain of LCK (P06239 whole entry): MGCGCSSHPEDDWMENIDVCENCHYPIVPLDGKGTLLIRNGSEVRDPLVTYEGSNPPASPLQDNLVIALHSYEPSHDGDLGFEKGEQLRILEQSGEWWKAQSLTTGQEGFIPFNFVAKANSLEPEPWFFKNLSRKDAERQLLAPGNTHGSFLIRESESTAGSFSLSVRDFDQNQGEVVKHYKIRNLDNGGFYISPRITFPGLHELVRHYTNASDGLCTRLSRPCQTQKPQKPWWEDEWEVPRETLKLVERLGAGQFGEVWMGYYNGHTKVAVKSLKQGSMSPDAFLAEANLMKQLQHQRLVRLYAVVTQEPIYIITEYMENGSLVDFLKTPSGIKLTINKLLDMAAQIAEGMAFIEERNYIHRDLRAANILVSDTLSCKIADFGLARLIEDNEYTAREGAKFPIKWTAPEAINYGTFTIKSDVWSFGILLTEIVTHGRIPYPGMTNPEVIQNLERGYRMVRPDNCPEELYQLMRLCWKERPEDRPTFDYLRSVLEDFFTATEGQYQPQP
# Chain of SRC (P12931 whole entry): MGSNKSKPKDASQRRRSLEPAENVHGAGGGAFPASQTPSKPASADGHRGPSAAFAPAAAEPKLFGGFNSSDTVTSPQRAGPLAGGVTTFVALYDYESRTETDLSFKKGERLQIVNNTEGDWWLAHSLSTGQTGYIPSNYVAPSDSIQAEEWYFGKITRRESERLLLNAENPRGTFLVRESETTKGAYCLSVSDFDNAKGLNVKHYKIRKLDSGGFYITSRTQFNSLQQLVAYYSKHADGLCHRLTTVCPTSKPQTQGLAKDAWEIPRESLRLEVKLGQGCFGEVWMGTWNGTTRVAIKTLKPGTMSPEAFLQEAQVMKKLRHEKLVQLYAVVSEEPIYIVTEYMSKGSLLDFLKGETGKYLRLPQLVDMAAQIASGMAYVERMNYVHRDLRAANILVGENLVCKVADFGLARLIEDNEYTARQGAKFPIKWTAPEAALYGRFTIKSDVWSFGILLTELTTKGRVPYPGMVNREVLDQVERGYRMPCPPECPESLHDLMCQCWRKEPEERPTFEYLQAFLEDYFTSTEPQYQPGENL
SMILES,IC50 (JAK3) [nM],IC50 (LCK) [nM],IC50 (ITK) [nM],IC50 (EGFR) [nM],IC50 (SRC) [nM]
"C[C@@H]1[C@H](NC(=O)c2ccc(C3CC3)cc2F)CCCN1c1cnc(C(N)=O)c(Nc2ccc(N3CCN(C4CCCC4)CC3)cc2)n1 [Example D-5, 3-{[4-(4-cyclopentylpiperazin-1-yl)phenyl]amino}-5-[(2R,3R)-3-(4-cyclopropyl-2-fluorobenzamido)-2-methylpiperidin-1-yl]pyrazine-2-carboxamide]",100 to 1000,100 to 1000,100 to 1000,100 to 1000,10 to 100
"C[C@@H]1[C@H](n2ccc3cc(C4CC4)ccc3c2=O)CCCN1c1cnc(C(N)=O)c(Nc2ccc(N3CCN(C)CC3)cc2)n1 [Example D-6, 5-[(2R,3R)-3-(6-cyclopropyl-1-oxo-1,2-dihydroisoquinolin-2-yl)-2-methylpiperidin-1-yl]-3-{[4-(4-methylpiperazin-1-yl)phenyl]amino}pyrazine-2-carboxamide]",1000 to 10000,10 to 100,100 to 1000,100 to 1000,10 to 100
"CC(C)N1CCN(c2ccc(Nc3nc(N4CCC[C@@H](NC(=O)c5ccc(C6CC6)cc5F)[C@H]4C)cnc3C(N)=O)cc2)CC1 [Example D-7, 5-[(2R,3R)-3-(4-cyclopropyl-2-fluorobenzamido)-2-methylpiperidin-1-yl]-3-({4-[4-(propan-2-yl)piperazin-1-yl]phenyl}amino)pyrazine-2-carboxamide]",1000 to 10000,10 to 100,10 to 100,100 to 1000,10 to 100
"C[C@@H]1[C@H](NC(=O)c2ccc(C3CC3)cc2F)CCCN1c1cnc(C(N)=O)c(Nc2ccc(N3CCN(C)CC3)cn2)n1 [Example D-8, 5-[(2R,3R)-3-(4-cyclopropyl-2-fluorobenzamido)-2-methylpiperidin-1-yl]-3-{[5-(4-methylpiperazin-1-yl)pyridin-2-yl]amino}pyrazine-2-carboxamide]",> 10000,> 10000,> 10000,> 10000,> 10000
"C[C@@H]1[C@H](NC(=O)Nc2cccnc2)CCCN1c1cnc(C(N)=O)c(Nc2ccc(C3(C)CCN(C4CCCC4)CC3)cc2)n1 [Example D-9, 3-{[4-(1-cyclopentyl-4-methylpiperidin-4-yl)phenyl]amino}-5-[(2R,3R)-2-methyl-3-{[(pyridin-3-yl)carbamoyl]amino}piperidin-1-yl]pyrazine-2-carboxamide]",100 to 1000,< 10,≤ 10,10 to 100,≤ 10
"C[C@@H]1[C@H](NC(=O)c2ccc(C3CC3)cc2F)CCCN1c1cnc(C(N)=O)c(Nc2ccc(N3CCN(C)CC3=O)cc2)n1 [Example D-10, 5-[(2R,3R)-3-(4-cyclopropyl-2-fluorobenzamido)-2-methylpiperidin-1-yl]-3-{[4-(4-methyl-2-oxopiperazin-1-yl)phenyl]amino}pyrazine-2-carboxamide]",1000 to 10000,100 to 1000,100 to 1000,100 to 1000,100 to 1000
"C[C@@H]1[C@H](NC(=O)c2ccc(OC(F)(F)F)cc2)CCCN1c1cnc(C(N)=O)c(Nc2cnn(C)c2)n1 [Example D-95, 3-[(1-methyl-1H-pyrazol-4-yl)amino]-5-[(2R,3R)-2-methyl-3-[4-(trifluoromethoxy)benzamido]piperidin-1-yl]pyrazine-2-carboxamide]",1000 to 10000,100 to 1000,100 to 1000,100 to 1000,100 to 1000

# Further lines, results first:
IC50 (JAK3) [nM],IC50 (LCK) [nM],IC50 (ITK) [nM],IC50 (EGFR) [nM],IC50 (SRC) [nM],SMILES
1000 to 10000,10 to 100,100 to 1000,100 to 1000,10 to 100,"C[C@@H]1[C@H](NC(=O)c2ccc(C(F)(F)F)cc2)CCCN1c1cnc(C(N)=O)c(Nc2ccc(N3CCN(C)CC3)cc2)n1 [Example D-11, 5-[(2R,3R)-2-methyl-3-[4-(trifluoromethyl)benzamido]piperidin-1-yl]-3-{[4-(4-methylpiperazin-1-yl)phenyl]amino}pyrazine-2-carboxamide]"
1000 to 10000,> 10000,> 10000,> 10000,> 10000,"C[C@@H]1[C@H](NC(=O)c2ccc(C3CC3)cc2)CCCN1c1cnc(C(N)=O)c(Nc2ccc(N3CCC(F)(F)CC3)cc2)n1 [Example D-96, 5-[(2R,3R)-3-(4-cyclopropylbenzamido)-2-methylpiperidin-1-yl]-3-{[4-(4,4-difluoropiperidin-1-yl)phenyl]amino}pyrazine-2-carboxamide]"
1000 to 10000,> 10000,1000 to 10000,> 10000,100 to 1000,"C[C@@H]1[C@H](NC(=O)c2ccc(C3CC3)cc2)CCCN1c1cnc(C(N)=O)c(Nc2ccc(N3CCN(CC(F)(F)F)CC3)cc2)n1 [Example D-97, 5-[(2R,3R)-3-(4-cyclopropylbenzamido)-2-methylpiperidin-1-yl]-3-({4-[4-(2,2,2-trifluoroethyl)piperazin-1-yl]phenyl}amino)pyrazine-2-carboxamide]"
1000 to 10000,> 10000,1000 to 10000,> 10000,> 10000,"C[C@@H]1[C@H](NC(=O)c2ccc(C3CC3)cc2)CCCN1c1cnc(C(N)=O)c(Nc2ccc(OC3CCN(CC(F)(F)F)CC3)cc2)n1 [Example D-98, 5-[(2R,3R)-3-(4-cyclopropylbenzamido)-2-methylpiperidin-1-yl]-3-[(4-{[1-(2,2,2-trifluoroethyl)piperidin-4-yl]oxy}phenyl)amino]pyrazine-2-carboxamide]"
100 to 1000,100 to 1000,100 to 1000,1000 to 10000,100 to 1000,"C[C@@H]1[C@H](NC(=O)c2ccc(C3CC3)cc2)CCCN1c1cnc(C(N)=O)c(Nc2ccc(N3CCC4(CC3)COC4)cc2)n1 [Example D-99, 5-[(2R,3R)-3-(4-cyclopropylbenzamido)-2-methylpiperidin-1-yl]-3-[(4-{2-oxa-7-azaspiro[3.5]nonan-7-yl}phenyl)amino]pyrazine-2-carboxamide]"
1000 to 10000,100 to 1000,100 to 1000,1000 to 10000,10 to 100,"C[C@@H]1[C@H](NC(=O)c2ccc(C3CC3)cc2)CCCN1c1cnc(C(N)=O)c(Nc2ccc(N3CCC(C(C)(C)O)CC3)cc2)n1 [Example D-100, 5-[(2R,3R)-3-(4-cyclopropylbenzamido)-2-methylpiperidin-1-yl]-3-({4-[4-(2-hydroxypropan-2-yl)piperidin-1-yl]phenyl}amino)pyrazine-2-carboxamide]"
1000 to 10000,10 to 100,10 to 100,100 to 1000,10 to 100,"C[C@@H]1[C@H](NC(=O)c2ccc(C3CC3)cc2)CCCN1c1cnc(C(N)=O)c(Nc2ccc(OC3CCN(C4CCCC4)CC3)cc2)n1 [Example D-101, 3-({4-[(1-cyclopentylpiperidin-4-yl)oxy]phenyl}amino)-5-[(2R,3R)-3-(4-cyclopropylbenzamido)-2-methylpiperidin-1-yl]pyrazine-2-carboxamide]"
